Source: patent US8815306B2, “Methods and compositions for promoting bone and joint health” (Metaproteomics, LLC, priority 2007, dated 2014)
Structures can show the parent of a compound that is named as a salt. Where two headings read alike, the source gives them in different places.

Columns and labels:
[1] = tested on: TNFα induced MMP-13 expression; assay: TNFα induced MMP-13 expression in human chondrocyte cell line SW1353; conditions: for TNFa Stimulated % Activity average (MMP-13 expression): Table 6; for TNFa Stimulated % Activity average (MMP-13 expression) / activity at 20 µg/mL / TNFa Stimulated MMP-13 n = 1 / TNFa Stimulated MMP-13 average / activity at 1 µg/mL / activity at 5 µg/mL / activity at 10 µg/mL: TNF pos = 100%; for activity at 20 µg/mL / activity at 1 µg/mL / activity at 5 µg/mL / activity at 10 µg/mL: SW1353, 24 h; for Dose dependence of inhibition of TNFα induced MMP-13 expression: Example 2, 20, 10, 5 and 1 ug/ml
Protocol: The SW1353 human chondrocyte cell line was used as described below.
Cells were grown and subcultured in 96-well plates at a density of 8×10^4 cells per well and allowed to reach ˜80% confluence overnight. Test compounds in medium were added to the cells at a final concentration of 0.1% DMSO. Following one hour of incubation with the test compounds, TNFα (10 ng/ml) or medium alone was added to the cell wells and incubation continued for 24 hours. The supernatant media was subsequently collected for MMP-13 determination.
Determination of MMP-13: A commercial, non-radioactive procedure for quantification of MMP-13 was used according to the manufacturer's instructions using MMP-13 as a standard. A minimum of 3 wells were used for each test condition.
The amount of MMP-13 release into the medium was determined by comparison of the MMP-13 generated in the presence or absence of TNFα and test compounds. A minimum of three wells were used for each test condition. The basal MMP-without 13 levels without TNFα stimulation was subtracted from TNF stimulation to determine the TNFα induced MMP-13 expression in the medium and the levels normalized to 100%. The percent activity of test compounds was measured in the presence of TNFα and referred as TNFα induced MMP-13 expression.

[2] = tested on: TNFα induced MMP-13 expression; assay: Synergy (Combinational Index) of THIAA and berberine on TNFα induced MMP-13 expression in SW1353; assay type: cell-based; conditions: Homo sapiens
Protocol: The SW1353 human chondrocyte cell line was used as described in Example 1.
The human chondrocyte cell line, SW1353 were maintained and treatments conditions were described in Example 1. […]; 1:10; 5:1; 2:1; 1:1; 1:2; 1:5; 1:10; […].
Determination of MMP-13 expression—The MMP-13 levels in the medium was measured as described in Example 1.
Median effect calculations were performed using CalcuSyn (Biosoft, Ferguson, Mo.). […] A minimum of three concentrations were used to determine the dose-response curve and a median inhibitory concentration (IC50).
Synergy—Combinational Index (CI) values were measured using CalcuSyn (Biosoft, Ferguson, Mo.). […]

[3] = tested on: sRANKL mediated TRAP activity (osteoclastogenesis), RAW 264.7; assay: sRANKL mediated osteoclastogenesis: TRAP activity in RAW 264.7 cells; conditions: for % TRAP activity average (sRANKL induced TRAP activity): RAW 264.7 cells, sRANKL alone normalized to 100%; for activity at 5 µg/mL / activity at 10 µg/mL: Mus musculus, RAW264.7, read-out: % TRAP Activity average; for % TRAP Activity average: Table 8, RAW 264.7, sRANKL 50 ng/ml, RANKL = 100%
Protocol: Following overnight incubation with the test compounds, sRANKL (50 ng/ml) or medium alone was added to the cell wells. The medium was replaced after 2 days with test compounds and sRANKL and incubation was continued for 3 additional days.
The cells were washed twice with ice cold PBS and lysed in 150 μl of 0.2% triton x-100 in PBS. TRAP activity in cell lysates was determined by using TRAP solution from the kit (Sigma 387A1 kit), according to the manufacturers instructions. A 100 μl cell lysates was added to 100 μl of TRAP solution in 96 well plate and incubated at 37° C. for 1 hr. The absorbance was measured at 555 nm using a plate reader. The protein concentration was estimated using BCA reagent (Sigma) and the final activity was normalized for equal protein.
Inhibition of TRAP activity was determined by comparison of the TRAP activity in the presence of with and with out test compounds in sRANKL, activated osteoclasts. A minimum of two wells were used for each concentration.
Inhibition of TRAP activity was determined by comparison in the presence of with and with out test compounds in sRANKL activated osteoclasts. A minimum of two wells were used for each concentration. The basal TRAP activity levels with out sRANKL stimulation was subtracted from sRANKL stimulation to get the sRANKL induced TRAP activity and the activity was normalized to 100%. The percent activity of test compounds was measured in the presence of sRANKL and referred as sRANKL induced TRAP activity.
A minimum of three concentrations were used to determine median inhibitory concentration (IC50).

[4] = Homo sapiens, read-out: TNFa Stimulated MMP-13 average, Table 4, 20 ug/mL, SW1353, TNFα 10 ng/ml 24 h
[5] = Table 4, 20 ug/mL, SW1353, TNFα 10 ng/ml 24 h
[6] = Homo sapiens, read-out: TNFa Stimulated MMP-13 average, Table 5, 1 ug/mL, SW1353
[7] = Homo sapiens, read-out: TNFa Stimulated MMP-13 average, Table 5, 5 ug/mL, SW1353
[8] = Homo sapiens, read-out: TNFa Stimulated MMP-13 average, Table 5, 10 ug/mL, SW1353
[9] = Homo sapiens, read-out: TNFa Stimulated MMP-13 average, Table 5, 20 ug/mL, SW1353

Compound	% TRAP activity average (sRANKL induced TRAP activity) ([3]; 1 ug/mL test compound)	% TRAP activity average (sRANKL induced TRAP activity) ([3]; 5 ug/mL test compound)	% TRAP activity average (sRANKL induced TRAP activity) ([3]; 10 ug/mL test compound)	activity at 5 µg/mL [3]	activity at 10 µg/mL [3]	activity at 20 µg/mL [1, 4]	TNFa Stimulated MMP-13 average [1, 5]	other results
COc1ccc2cc3[n+](cc2c1OC)CCc1cc2c(cc1-3)OCO2 [Berberine sulfate]	–	–	–	–	–	–	–	Dose dependence of modulation of TNFα induced MMP-13 expression ([1]; Example 3, SW1353): dose dependently modulated; IC50 ([1]; Homo sapiens, SW1353, read-out: IC50 (TNFa induced MMP-13 expression)): 0.15 µg/mL; TNFa Stimulated % Activity average (MMP-13 expression) ([1]; 0.05 ug/mL, SW1353): 99%; TNFa Stimulated % Activity average (MMP-13 expression) ([1]; 0.1 ug/mL, SW1353): 50%; TNFa Stimulated % Activity average (MMP-13 expression) ([1]; 0.5 ug/mL, SW1353): 4%; TNFa Stimulated % Activity average (MMP-13 expression) ([1]; 1 ug/mL, SW1353): −1%; IC50 ([2]; Table 7B, single agents, read-out: Dm (median effect dose, TNFα induced MMP-13 expression)): 0.254 µg/mL; IC50 ([2]; text b137, single agents, read-out: IC50 (TNFα induced MMP-13 expression)): 0.254 µg/mL
COc1ccc2cc3[n+](cc2c1OC)CCc1cc2c(cc1-3)OCO2 [Berberine, 7,8,13,13a-tetrahydro-9,10-dimethoxy-2,3-(methylenedioxy)-berbinium]	68%	15%	7%	4%	-8%	-39%	–	TNFa Stimulated MMP-13 n = 1 ([1]; Table 5, 1 ug/mL, SW1353): −1%; TNFa Stimulated MMP-13 n = 1 ([1]; Table 5, 5 ug/mL, SW1353): −4%; TNFa Stimulated MMP-13 n = 1 ([1]; Table 5, 10 ug/mL, SW1353): −4%; TNFa Stimulated MMP-13 n = 1 ([1]; Table 5, 20 ug/mL, SW1353): −4%
CC/C=C\C/C=C\C/C=C\C/C=C\C/C=C\C/C=C\CCC(=O)O [DHA]	–	–	–	–	–	–	265%	% TRAP Activity average ([3]; 5 ug/mL): 120%; % TRAP Activity average ([3]; 10 ug/mL): 105%
C[C@]12CC[C@H](O)CC1=CC[C@@H]1[C@@H]2CC[C@]2(C)C(=O)CC[C@@H]12 [DHEA, reference compound]	–	–	–	–	–	–	−2%	% TRAP Activity average ([3]; 5 ug/mL): 46%; % TRAP Activity average ([3]; 10 ug/mL): 33%; Dose dependence of inhibition of TNFα induced MMP-13 expression ([1]; SW1353): dose dependently (20, 10, and 1 ug/ml) inhibited; TNFa Stimulated MMP-13 average ([1]; Table 5, 1 ug/mL, SW1353): 111%; TNFa Stimulated MMP-13 average ([1]; Table 5, 5 ug/mL, SW1353): 108%; TNFa Stimulated MMP-13 average ([1]; Table 5, 10 ug/mL, SW1353): 64%; TNFa Stimulated MMP-13 average ([1]; Table 5, 20 ug/mL, SW1353): 5%
O=c1c(-c2ccc(O)cc2)coc2cc(O)cc(O)c12 [Genistein]	–	–	–	91%	72%	27%	–	–
CC1(C)C=Cc2c(ccc3c2OC[C@@H](c2ccc(O)cc2O)C3)O1 [Glabridin]	–	–	–	82%	75%	79%	–	–
N[C@H]1C(O)O[C@H](CO)[C@@H](O)[C@@H]1O (stereo partly shown) [Glucosamine]	179%	183%	269%	75%	48%	77%	–	TNFa Stimulated MMP-13 n = 1 ([1]; Table 5, 1 ug/mL, SW1353): 126%; TNFa Stimulated MMP-13 n = 1 ([1]; Table 5, 5 ug/mL, SW1353): 137%; TNFa Stimulated MMP-13 n = 1 ([1]; Table 5, 10 ug/mL, SW1353): 107%; TNFa Stimulated MMP-13 n = 1 ([1]; Table 5, 20 ug/mL, SW1353): 105%
COc1ccc([C@@H]2CC(=O)c3c(O)cc(O[C@@H]4O[C@H](CO[C@@H]5O[C@@H](C)[C@H](O)[C@@H](O)[C@H]5O)[C@@H](O)[C@H](O)[C@H]4O)cc3O2)cc1O [Hesperidin]	–	–	–	–	–	–	13%	% TRAP Activity average ([3]; 5 ug/mL): 81%; % TRAP Activity average ([3]; 10 ug/mL): 76%
CC(C)Oc1ccc2c(=O)c(-c3ccccc3)coc2c1 [Ipriflavone, reference compound]	168%	164%	82%	–	–	-42%	–	Dose dependence of inhibition of TNFα induced MMP-13 expression ([1]; SW1353): dose dependently (20, 10, and 1 ug/ml) inhibited; activity at 1 µg/mL [1, 6]: 86%; activity at 5 µg/mL [1, 7]: 20%; activity at 10 µg/mL [1, 8]: 0%; activity at 20 µg/mL [1, 9]: 3%
CCCCC/C=C\C/C=C\CCCCCCCC(=O)O [Linoleic Acid]	–	–	–	–	–	23%	–	–
CC1(C)CC[C@]2(C(=O)O)CC[C@]3(C)C(=CC[C@@H]4[C@@]5(C)CC[C@H](O)C(C)(C)[C@@H]5CC[C@]43C)[C@@H]2C1 [Oleanolic Acid]	139%	63%	32%	61%	35%	–	–	activity at 10 µg/mL ([1]; Homo sapiens, read-out: TNFa Stimulated MMP-13 average, Table 4, 10 ug/mL, SW1353, TNFα 10 ng/ml 24 h): 17%; TNFa Stimulated MMP-13 n = 1 ([1]; Table 5, 1 ug/mL, SW1353): 95%; TNFa Stimulated MMP-13 n = 1 ([1]; Table 5, 5 ug/mL, SW1353): 38%; TNFa Stimulated MMP-13 n = 1 ([1]; Table 5, 10 ug/mL, SW1353): 43%; TNFa Stimulated MMP-13 n = 1 ([1]; Table 5, 20 ug/mL, SW1353): 26%
C/C=C1/[C@H](O[C@@H]2O[C@H](CO)[C@@H](O)[C@H](O)[C@H]2O)OC=C(C(=O)OC)[C@H]1CC(=O)OCCc1ccc(O)c(O)c1 [Oleuropein]	–	–	–	82%	81%	-31%	–	–
O=C(CCc1ccc(O)cc1)c1c(O)cc(O)cc1O[C@@H]1O[C@H](CO)[C@@H](O)[C@H](O)[C@H]1O [Phloridzin]	–	–	–	103%	150%	77%	–	–
O=C([O-])CC(O)(CC(=O)[O-])C(=O)[O-].[K+].[K+].[K+] [Potassium Citrate]	–	–	–	–	–	–	95%	–
O=c1c(O)c(-c2ccc(O)c(O)c2)oc2cc(O)cc(O)c12 [Quercetin]	–	–	–	73%	62%	-65%	–	–
Oc1ccc(C=Cc2cc(O)cc(O)c2)cc1 [Resveratrol]	117%	17%	16%	11%	2%	-42%	–	Dose dependence of inhibition of TNFα induced MMP-13 expression ([1]; SW1353): dose dependently (20, 10, and 1 ug/ml) inhibited; activity at 1 µg/mL [1, 6]: 96%; activity at 5 µg/mL [1, 7]: 88%; activity at 10 µg/mL [1, 8]: 53%; activity at 20 µg/mL [1, 9]: 45%
C[C@@H]1O[C@@H](OC[C@H]2O[C@@H](Oc3c(-c4ccc(O)c(O)c4)oc4cc(O)cc(O)c4c3=O)[C@H](O)[C@@H](O)[C@@H]2O)[C@H](O)[C@H](O)[C@H]1O [Rutin]	–	–	–	106%	74%	-7%	–	–
O=C1O[C@H]([C@@H](O)CO)C(O)=C1O [Vitamin C]	–	–	–	–	–	370%	–	–
CC(C)=CCC/C(C)=C/CC/C(C)=C/CC/C(C)=C/CC1=C(C)C(=O)c2ccccc2C1=O [Vitamin K2]	–	–	–	–	–	–	56%	–
Conjugated Linoleic acid	86%	81%	79%	–	–	–	–	–
Hyaluronic Acid	122%	130%	111%	–	–	–	105%	% TRAP Activity average ([3]; 5 ug/mL): 35%; % TRAP Activity average ([3]; 10 ug/mL): 2%
Inulin	–	–	–	–	–	–	33%	% TRAP Activity average ([3]; 5 ug/mL): 87%; % TRAP Activity average ([3]; 10 ug/mL): 69%
